Measurements published in patent publication US20240270762A1, “PENICILLIN-BINDING PROTEIN INHIBITORS” (priority 2021, published 2024).
In brackets after ≈: the same amount, converted by molar mass. Like-named read-outs stand apart in the source and are kept apart here.

Columns and labels:
P. aeruginosa ATCC 35151 = assay: microbe, parasite or virus in culture; type: cell-based; details: Pseudomonas aeruginosa, ATCC35151, read-out: Minimum inhibitory concentration, P. aeruginosa ATCC 35151
[1] = test system: P. aeruginosa (ΔmexAB-oprM); assay: Broth microdilution MIC in iron-depleted CAMHB (IDM); type: cell-based; details: Pseudomonas aeruginosa; iron-depleted CAMHB (IDM); […]; read-out: Minimum inhibitory concentration, P. aeruginosa ΔmexAB-oprM
N. gonorrhoeae WHO Q = assay: Liquid broth MIC in Fastidious broth; details: Neisseria gonorrhoeae
A. baumannii CDC-0083 = assay: microbe, parasite or virus in culture; type: cell-based; details: Acinetobacter baumannii, CDC0083, read-out: MIC, A. baumannii CDC-0083
N. gonorrhoeae WHO X = assay: Liquid broth MIC in Fastidious broth; details: Neisseria gonorrhoeae
[2] = target: T1, PBP1a from Acinetobacter baumannii (ATCC 19606) (Acinetobacter baumannii, UniProt A0ABX6CK30); assay: Bocillin-FL fluorescence polarization competition binding, A. baumannii PBP1a; details: fluorescence polarization competition binding assay using Bocillin-FL; read-out: A. baumannii PBP1a Potency
T1 sequence (A0ABX6CK30 1-851): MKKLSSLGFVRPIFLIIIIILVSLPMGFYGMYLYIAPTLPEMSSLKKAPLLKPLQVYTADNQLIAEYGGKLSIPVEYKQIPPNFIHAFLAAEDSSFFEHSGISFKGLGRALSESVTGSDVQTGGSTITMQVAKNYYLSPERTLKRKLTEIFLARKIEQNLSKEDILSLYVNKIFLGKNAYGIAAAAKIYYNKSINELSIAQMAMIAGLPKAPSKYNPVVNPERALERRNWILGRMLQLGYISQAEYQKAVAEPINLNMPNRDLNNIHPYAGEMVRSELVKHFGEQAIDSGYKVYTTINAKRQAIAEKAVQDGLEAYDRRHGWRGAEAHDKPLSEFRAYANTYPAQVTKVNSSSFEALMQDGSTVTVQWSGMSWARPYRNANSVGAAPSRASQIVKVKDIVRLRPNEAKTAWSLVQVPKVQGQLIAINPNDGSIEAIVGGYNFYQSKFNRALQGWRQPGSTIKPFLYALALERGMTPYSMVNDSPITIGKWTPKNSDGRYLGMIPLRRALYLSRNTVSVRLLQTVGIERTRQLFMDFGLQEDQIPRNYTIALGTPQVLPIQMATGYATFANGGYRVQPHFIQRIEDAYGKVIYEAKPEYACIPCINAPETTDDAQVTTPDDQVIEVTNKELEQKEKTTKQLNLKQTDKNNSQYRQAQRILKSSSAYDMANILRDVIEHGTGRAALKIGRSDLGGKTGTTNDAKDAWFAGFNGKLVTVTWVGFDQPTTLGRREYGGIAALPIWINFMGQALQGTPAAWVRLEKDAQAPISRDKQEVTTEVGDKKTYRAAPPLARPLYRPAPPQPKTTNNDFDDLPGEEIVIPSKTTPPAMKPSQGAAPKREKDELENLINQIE
Procedure, shortened: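 Purified PBP was preincubated with inhibitor (E. coli PBP3 1.5 μM, 30 min; P. aeruginosa PBP3 0.75 μM, A. baumannii PBP3 0.2 μM and PBP1a 1 μM, 15 min), then Bocillin-FL (0.1 μM; 0.05 μM for PBP1a) added and FP read up to 60 min. EC50 = 50% loss of bound probe.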

[3] = test system: B. thailandensis ATCC 700388; assay: microbe, parasite or virus in culture; type: cell-based; details: Burkholderia thailandensis, ATCC700388, read-out: Minimum inhibitory concentration (MIC), B. thailandensis ATCC 700388
[4] = test system: N. gonorrhoeae ATCC 49226; assay: Liquid broth MIC in Fastidious broth; details: Neisseria gonorrhoeae
[5] = read-out: Minimum Inhibitory Concentration (MIC), N. gonorrhoeae WHO Q
[6] = read-out: Minimum Inhibitory Concentration (MIC), N. gonorrhoeae WHO X
[7] = ATCC49226, read-out: Minimum Inhibitory Concentration (MIC), N. gonorrhoeae ATCC 49226
[8] = read-out: Minimum Inhibitory Concentration, WHO Q
[9] = read-out: Minimum Inhibitory Concentration, WHO X
[10] = ATCC49226, read-out: Minimum Inhibitory Concentration, ATCC 49226

Row | SMILES | MIC (P. aeruginosa ATCC 35151) [µg/mL] | MIC [1] [µg/mL] | MIC (N. gonorrhoeae WHO Q; [5]) [µg/mL] | MIC (A. baumannii CDC-0083) [µg/mL] | MIC (N. gonorrhoeae WHO X; [6]) [µg/mL] | IC50 [2] [µM] | MIC [3] [µg/mL] | MIC [4, 7] [µg/mL] | MIC (N. gonorrhoeae WHO Q; [8]) [µg/mL] | MIC (N. gonorrhoeae WHO X; [9]) [µg/mL] | MIC [4, 10] [µg/mL]
1 | O=C(NCCN1CCN(C(=O)NC(C(=O)N[C@H]2Cc3ccc(F)c(C(=O)O)c3OB2O)c2cc(F)c(O)c(O)c2Cl)C(=O)C1=O)c1ccc(O)cc1 (stereo partly drawn) [Example 214, (3R)-3-(2-(2-chloro-5-fluoro-3,4-dihydroxyphenyl)-2-(4-(2-(4-hydroxybenzamido)ethyl)-2,3-dioxopiperazine-1-carboxamido)acetamido)-7-fluoro-2-hydroxy-3,4-dihydro-2H-benzo[e][1,2]oxaborinine-8-carboxylic acid] | < 1 | < 1 | > 64 | > 128 | > 64 | > 250 | 8 to 16 (≈ 10.7 to 21.5 µM) | 4 to 8 (≈ 5.36 to 10.7 µM) | – | – | –
2 | O=C(NCCS(=O)(=O)N1CCN(C(=O)NC(C(=O)N[C@H]2Cc3ccc(F)c(C(=O)O)c3OB2O)c2cc(F)c(O)c(O)c2Cl)C1=O)Nc1cccc(O)c1 (stereo partly drawn) [Example 266, (3R)-3-(2-(2-chloro-5-fluoro-3,4-dihydroxyphenyl)-2-(3-((2-(3-(3-hydroxyphenyl)ureido)ethyl)sulfonyl)-2-oxoimidazolidine-1-carboxamido)acetamido)-7-fluoro-2-hydroxy-3,4-dihydro-2H-benzo[e][1,2]oxaborinine-8-carboxylic acid] | < 1 | < 1 | – | < 1 | – | > 250 | 2 to 4 (≈ 2.51 to 5.02 µM) | – | 16 to 32 (≈ 20.1 to 40.2 µM) | > 64 | 16 to 32 (≈ 20.1 to 40.2 µM)
3 | O=C(NCCCN1CCN(C(=O)NC(C(=O)N[C@H]2Cc3ccc(F)c(C(=O)O)c3OB2O)c2cc(F)c(O)c(O)c2Cl)C1=O)c1nccs1 (stereo partly drawn) [Example 257, (3R)-3-(2-(2-chloro-5-fluoro-3,4-dihydroxyphenyl)-2-(2-oxo-3-(3-(thiazole-2-carboxamido)propyl)imidazolidine-1-carboxamido)acetamido)-7-fluoro-2-hydroxy-3,4-dihydro-2H-benzo[e][1,2]oxaborinine-8-carboxylic acid] | < 1 | < 1 | – | < 1 | – | > 250 | < 1 | – | > 64 | > 64 | > 64
4 | O=C(NCCCS(=O)(=O)N1CCN(C(=O)NC(C(=O)N[C@H]2Cc3ccc(F)c(C(=O)O)c3OB2O)c2cc(F)c(O)c(O)c2Cl)C1=O)c1nccs1 (stereo partly drawn) [Example 274, (3R)-3-(2-(2-chloro-5-fluoro-3,4-dihydroxyphenyl)-2-(2-oxo-3-((3-(thiazole-2-carboxamido)propyl)sulfonyl)imidazolidine-1-carboxamido)acetamido)-7-fluoro-2-hydroxy-3,4-dihydro-2H-benzo[e][1,2]oxaborinine-8-carboxylic acid] | < 1 | < 1 | – | < 1 | – | > 250 | > 128 | – | 16 to 32 (≈ 20.3 to 40.7 µM) | > 64 | 16 to 32 (≈ 20.3 to 40.7 µM)
5 | O=C(NCCCN1CCN(C(=O)N[C@@H](C(=O)N[C@H]2Cc3ccc(F)c(C(=O)O)c3OB2O)c2cc(F)c(O)c(O)c2Cl)C(=O)C1=O)c1cccnc1 [Example 210, (R)-3-((R)-2-(2-chloro-5-fluoro-3,4-dihydroxyphenyl)-2-(4-(3-(nicotinamido)propyl)-2,3-dioxopiperazine-1-carboxamido)acetamido)-7-fluoro-2-hydroxy-3,4-dihydro-2H-benzo[e][1,2]oxaborinine-8-carboxylic acid] | < 1 | < 1 | > 64 | 2 to 4 (≈ 2.69 to 5.37 µM) | > 64 | > 250 | < 1 | 16 to 32 (≈ 21.5 to 43 µM) | – | – | –
6 | O=C(NCCN1CCN(C(=O)NC(C(=O)N[C@H]2Cc3ccc(F)c(C(=O)O)c3OB2O)c2cc(F)c(O)c(O)c2Cl)C(=O)C1=O)Nc1ccc(O)cc1 (stereo partly drawn) [Example 219, (3R)-3-(2-(2-chloro-5-fluoro-3,4-dihydroxyphenyl)-2-(4-(2-(3-(4-hydroxyphenyl)ureido)ethyl)-2,3-dioxopiperazine-1-carboxamido)acetamido)-7-fluoro-2-hydroxy-3,4-dihydro-2H-benzo[e][1,2]oxaborinine-8-carboxylic acid] | < 1 | < 1 | > 64 | 8 to 16 (≈ 10.5 to 21 µM) | > 64 | > 250 | 8 to 16 (≈ 10.5 to 21 µM) | 16 to 32 (≈ 21 to 42.1 µM) | – | – | –
